Where a name gives a salt, the structure may show the parent alone.
Tests used:
[1] = biological target: P. falciparum aldolase in the presence of TRAP (Plasmodium falciparum, UniProt Q7KQL9); test: aldolase enzyme activity assay, P. falciparum aldolase in the presence of TRAP; assay type: biochemical; conditions: in the presence of TRAP and the compounds
From the text: (§1) FIGS. 16A-16D depict an aldolase enzyme activity assay. (A) Cartoon and surface representation of aldolase with TRAPpep bound (magenta, sticks) (PDB entry 2pc4), overlapping the F16BP (green, sticks) substrate binding site (PDB entry 4ald), via PyMOL. (B) Coupled enzyme assay to measure aldolase activity via NADH consumption as measured at 340 nm. (C) Concentration-dependent effect of compounds on PfAldolase inhibition in the presence of PbTRAP peptide. Activity is normalized to the PbTRAP control, which reduces Vmax to 50% of enzyme without PbTRAP. (D) PfAldolase activity in the presence of compounds to determine direct inhibition of enzyme by the compounds. Activity is normalized to the PfAldolase control measured Vmax. Standard error means plotted for activity assays and standard deviation for SPR data.
(§2) Dose-Dependent Enzymatic Inhibition of Compounds on P. falciparum Aldolase and Rabbit Aldolase as a Surrogate for Human Aldolase.

rabbit aldolase = biological target: T1, rabbit aldolase (Oryctolagus cuniculus, UniProt P00883); test: aldolase enzyme activity assay, rabbit aldolase; assay type: biochemical; conditions: surrogate for human aldolase
T1 sequence (P00883 1-364): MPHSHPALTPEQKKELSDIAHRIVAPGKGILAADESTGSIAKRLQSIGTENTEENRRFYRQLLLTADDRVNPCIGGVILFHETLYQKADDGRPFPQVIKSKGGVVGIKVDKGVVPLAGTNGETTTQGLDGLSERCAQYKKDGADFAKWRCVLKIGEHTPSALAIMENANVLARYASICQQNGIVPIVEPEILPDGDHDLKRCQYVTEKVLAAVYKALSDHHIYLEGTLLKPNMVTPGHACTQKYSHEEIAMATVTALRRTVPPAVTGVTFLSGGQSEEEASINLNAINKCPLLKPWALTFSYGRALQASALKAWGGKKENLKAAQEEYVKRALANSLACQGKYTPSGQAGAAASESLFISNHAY
From the text: as §1, §2

P. berghei sporozoites = test: trail radius of gliding sporozoites (ImageJ); assay type: cell-based; conditions: 62.5 μM; 130-150 trail radii; p-value <0.0001
Protocol: The trail radius was measured using ImageJ and the statistical analyses to determine standard error mean and t-test were performed using GraphPad.
The gliding phenotype was altered to determine whether the compounds were having off-target effects. While quantifying the number of deposited trails, the trail diameter in the presence of compounds was altered. An altered trail diameter is more likely due to either a direct effect on the motor or an effect on sporozoite shape. The diameter of the circular trails deposited by the parasites in the DMSO control was measured and in the presence of three compounds at 62.5 μM (FIG. 8). This concentration was chosen because at higher concentrations, there were not enough sporozoite trails to measure to do a statistical analysis of the results. Using ImageJ, circles were fit to trails in multiple images to measure 130-150 trail radii. The average trail radii increased in the presence of compounds 4, 17, and 18 with a p-value <0.0001. The increase in average trail size was 6.3 microns, 2.5 microns, and 3.6, for compounds 4, 17, and 18, respectively.

P. falciparum aldolase in the presence of TRAP, sequence (Q7KQL9 whole entry): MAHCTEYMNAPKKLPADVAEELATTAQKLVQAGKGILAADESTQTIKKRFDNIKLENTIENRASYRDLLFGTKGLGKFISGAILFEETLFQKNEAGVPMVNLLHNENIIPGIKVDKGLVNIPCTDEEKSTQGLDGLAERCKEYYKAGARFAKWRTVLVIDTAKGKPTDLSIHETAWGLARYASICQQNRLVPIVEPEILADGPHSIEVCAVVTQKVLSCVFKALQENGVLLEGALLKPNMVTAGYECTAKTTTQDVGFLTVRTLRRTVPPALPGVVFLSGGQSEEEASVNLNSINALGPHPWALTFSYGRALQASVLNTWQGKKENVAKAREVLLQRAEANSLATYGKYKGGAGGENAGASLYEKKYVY

Row | SMILES | inhibition of P. falciparum aldolase [1] | enzyme inhibition on rabbit aldolase (rabbit aldolase) | increase in average trail size (trail radius) vs DMSO control (P. berghei sporozoites)
1 | CCN(CC)S(=O)(=O)c1ccc(-c2csc(Nc3ccc(C)c(C)c3)n2)cc1 [Compound 3, 4-{2-[(3,4-dimethylphenyl)amino]-1,3-thiazol-4-yl}-N,N-diethylbenzenesulfonamide hydrobromide] | inhibited | no enzyme inhibition | 
2 | O=C(Nc1ccc(-c2nc3cc4ccccc4cc3[nH]2)cc1)c1cccc(Br)c1 [Compound 17, 3-bromo-N-[4-(1H-naphtho[2,3-d]imidazol-2-yl)phenyl]benzamide] |  |  | 2.5 microns

— US20180087086A1, “CELL EGRESS AND INVASION INHIBITORS AND THEIR USE AS ANTIPARASITICAL AGENTS” (THE JOHNS HOPKINS UNIVERSITY, priority 2015, published 2018)
